From patent US10005739B2, “Quinazolinone and isoquinolinone derivative” (CHUGAI SEIYAKU KABUSHIKI KAISHA, priority 2013, dated 2018) come the findings set out here.

The target in this test is DDR1 (Homo sapiens (Human), UniProt Q08345). Nature of the test: Measurement of DDR1 enzyme inhibitory activity (phosphorylation of biotinylated peptide, time-resolved fluorescence). The test is classed as biochemical. The note with it: human DDR1 enzyme, biotinylated peptide phosphorylation; read-out: DDR1 enzyme inhibition assay IC50. Here is the method: 1. Measurement of DDR1 Enzyme Inhibitory Activity
Chain of DDR1 (Q08345 19-913): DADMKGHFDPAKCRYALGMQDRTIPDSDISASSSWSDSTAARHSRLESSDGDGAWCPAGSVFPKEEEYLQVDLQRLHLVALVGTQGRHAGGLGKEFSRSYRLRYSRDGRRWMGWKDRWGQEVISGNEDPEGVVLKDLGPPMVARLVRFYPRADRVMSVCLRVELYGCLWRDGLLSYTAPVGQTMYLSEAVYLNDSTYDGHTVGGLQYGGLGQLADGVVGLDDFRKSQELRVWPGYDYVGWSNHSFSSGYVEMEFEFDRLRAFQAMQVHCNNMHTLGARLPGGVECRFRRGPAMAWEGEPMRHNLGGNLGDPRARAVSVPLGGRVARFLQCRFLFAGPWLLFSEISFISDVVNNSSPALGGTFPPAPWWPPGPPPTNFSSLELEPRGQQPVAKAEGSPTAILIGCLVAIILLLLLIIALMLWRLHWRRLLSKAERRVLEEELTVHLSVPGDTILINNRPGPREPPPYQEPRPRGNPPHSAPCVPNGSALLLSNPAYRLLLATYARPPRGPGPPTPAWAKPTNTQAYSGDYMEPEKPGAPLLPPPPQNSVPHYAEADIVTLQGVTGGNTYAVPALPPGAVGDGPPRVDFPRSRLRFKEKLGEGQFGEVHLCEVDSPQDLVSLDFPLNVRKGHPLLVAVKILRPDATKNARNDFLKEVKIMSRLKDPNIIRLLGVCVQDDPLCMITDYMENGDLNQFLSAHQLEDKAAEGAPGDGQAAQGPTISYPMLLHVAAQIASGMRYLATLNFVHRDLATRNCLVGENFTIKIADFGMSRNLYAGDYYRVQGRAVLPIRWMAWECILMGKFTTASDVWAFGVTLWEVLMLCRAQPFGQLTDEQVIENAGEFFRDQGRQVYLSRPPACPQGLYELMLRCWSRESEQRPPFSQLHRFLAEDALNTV
The DDR1 enzyme inhibitory activity was determined with human DDR1 enzyme prepared using the baculovirus expression system, based on the inhibitory activity of phosphorylation of a biotinylated peptide ([…]) by the enzyme. The phosphorylated biotinylated peptide was detected using time-resolved fluorescence, with an anti-phosphorylated tyrosine antibody conjugated with europium cryptate and streptavidin conjugated with XL665 which is a derivative of allophycocyanin.
In general, IC50 refers to the concentration that gives 50% inhibition. Regarding `CCS(=O)(=O)c1ccc(Cl)cc1Nn1cnc2ccc(C)cc2c1=O` [Compound A-51, 3-(5-Chloro-2-ethylsulfonylanilino)-6-methylquinazolin-4-one], the IC50 is 110 nM. In the case of `CCSc1ccc(Cl)cc1Nn1cnc2ccc(CC)cc2c1=O` [Compound A-52, 3-(5-Chloro-2-ethylsulfanylanilino)-6-ethylquinazolin-4-one], the 50% inhibitory concentration (IC50) came to 200 nM. Then `CCc1ccc2ncn(Nc3cc(Cl)ccc3S(=O)(=O)CC)c(=O)c2c1` [Compound A-53, 3-(5-Chloro-2-ethylsulfonylanilino)-6-ethylquinazolin-4-one], with 180 nM. As for `CCCc1ccc2ncn(Nc3cc(Cl)ccc3SCC)c(=O)c2c1` [Compound A-54, 3-(5-Chloro-2-ethylsulfanylanilino)-6-propylquinazolin-4-one], the 50% inhibitory concentration (IC50) was determined as 330 nM. As to `CCCc1ccc2ncn(Nc3cc(Cl)ccc3S(=O)(=O)CC)c(=O)c2c1` [Compound A-55, 3-(5-Chloro-2-ethylsulfonylanilino)-6-propylquinazolin-4-one], the half-inhibitory concentration (IC50) was found to be 240 nM. As to `CCSc1ccc(Cl)cc1Nn1cnc2ccc([N+](=O)[O-])cc2c1=O` [Compound A-56, 3-(5-Chloro-2-ethylsulfanylanilino)-6-nitroquinazolin-4-one], the IC50 amounted to 99 nM. As to `CCS(=O)(=O)c1ccc(Cl)cc1Nn1cnc2ccc([N+](=O)[O-])cc2c1=O` [Compound A-57, 3-(5-Chloro-2-ethylsulfonylanilino)-6-nitroquinazolin-4-one], the half-inhibitory concentration (IC50) came to 120 nM. With `CCS(=O)(=O)c1ccc(Cl)cc1Nn1cnc2ccc(N)cc2c1=O` [Compound A-58, 6-Amino-3-(5-chloro-2-ethylsulfonylanilino)quinazolin-4-one], the IC50 is 4050 nM. Consider `CCSc1ccc(Cl)cc1Nn1cnc2ccc(N)cc2c1=O` [Compound A-59, 6-Amino-3-(5-chloro-2-ethylsulfanylanilino)quinazolin-4-one], for which the IC50 stood at 480 nM. Consider `CCSc1ccc(Cl)cc1Nn1cnc2ccc(I)cc2c1=O` [Compound A-60, 3-(5-Chloro-2-ethylsulfanylanilino)-6-iodoquinazolin-4-one], for which the half-inhibitory concentration (IC50) came to 220 nM. As to `CCS(=O)(=O)c1ccc(Cl)cc1Nn1cnc2ccc(I)cc2c1=O` [Compound A-61, 3-(5-Chloro-2-ethylsulfonylanilino)-6-iodoquinazolin-4-one], the IC50 is 290 nM.

Turning to `C=C(C)c1ccc2ncn(Nc3cc(Cl)ccc3S(=O)(=O)CC)c(=O)c2c1` [Compound A-62, 3-(5-Chloro-2-ethylsulfonylanilino)-6-prop-1-en-2-ylquinazolin-4-one], the 50% inhibitory concentration (IC50) came out at 110 nM. In the case of `CCS(=O)(=O)c1ccc(Cl)cc1Nn1cnc2ccc(C(C)C)cc2c1=O` [Compound A-63, 3-(5-Chloro-2-ethylsulfonylanilino)-6-propan-2-ylquinazolin-4-one], the half-maximal inhibitory concentration (IC50) stood at 200 nM. As for `C=Cc1ccc2ncn(Nc3cc(Cl)ccc3S(=O)(=O)CC)c(=O)c2c1` [Compound A-64, 3-(5-Chloro-2-ethylsulfonylanilino)-6-ethenylquinazolin-4-one], the half-maximal inhibitory concentration (IC50) is 200 nM. For the molecule `CC#Cc1ccc2ncn(Nc3cc(Cl)ccc3S(=O)(=O)CC)c(=O)c2c1` [Compound A-65, 3-(5-Chloro-2-ethylsulfonylanilino)-6-prop-1-ynylquinazolin-4-one], the IC50 came out at 3110 nM.

For `CCS(=O)(=O)c1ccc(Cl)cc1Nn1cnc2ccc(SC)cc2c1=O` [Compound A-66, 3-(5-Chloro-2-ethylsulfonylanilino)-6-methylsulfanylquinazolin-4-one], the IC50 was 52 nM. In the case of `CSc1ccc(Cl)cc1Nn1cnc2c(Br)cc(C)cc2c1=O` [Compound B-1, 8-Bromo-3-(5-chloro-2-methylsulfanylanilino)-6-methylquinazolin-4-one], the IC50 was determined as 250 nM. For `Cc1cc(Br)c2ncn(Nc3cc(Cl)ccc3S(C)(=O)=O)c(=O)c2c1` [Compound B-2, 8-Bromo-3-(5-chloro-2-methylsulfonylanilino)-6-methylquinazolin-4-one], the IC50 is 160 nM. `CCCSc1ccc(Cl)cc1Nn1cnc2c(Br)cc(C)cc2c1=O` [Compound B-3, 8-Bromo-3-(5-chloro-2-propylsulfanylanilino)-6-methylquinazolin-4-one]: the IC50 was 140 nM. For `CCCS(=O)(=O)c1ccc(Cl)cc1Nn1cnc2c(Br)cc(C)cc2c1=O` [Compound B-4, 8-Bromo-3-(5-chloro-2-propylsulfonylanilino)-6-methylquinazolin-4-one], the half-maximal inhibitory concentration (IC50) came out at 110 nM. Consider `Cc1cc(Br)c2ncn(Nc3cc(Cl)ccc3Sc3ccccc3)c(=O)c2c1` [Compound B-12, 8-Bromo-3-(5-chloro-2-phenylsulfanylanilino)-6-methylquinazolin-4-one], for which the IC50 amounted to 150 nM.

Consider `Cc1cc(Br)c2ncn(Nc3cc(Cl)ccc3[S+]([O-])c3ccccc3)c(=O)c2c1` (stereo not drawn) [Compound B-13, 3-[2-(Benzenesulfinyl)-5-chloroanilino]-8-bromo-6-methylquinazolin-4-one], for which the IC50 is 740 nM.

With `Cc1cc(Br)c2ncn(Nc3cc(Cl)ccc3S(=O)(=O)c3ccccc3)c(=O)c2c1` [Compound B-14, 3-[2-(Benzenesulfonyl)-5-chloroanilino]-8-bromo-6-methylquinazolin-4-one], the concentration for half-maximal inhibition (IC50) is 290 nM. For the molecule `N#Cc1ccc(Sc2ccccc2)c(Nn2cnc3ccc(C(F)(F)F)cc3c2=O)c1` [Compound B-15, 3-[[4-Oxo-6-(trifluoromethyl)quinazolin-3-yl]amino]-4-phenylsulfanylbenzonitrile], the half-maximal inhibitory concentration (IC50) is 860 nM. Take `N#Cc1ccc(S(=O)(=O)c2ccccc2)c(Nn2cnc3ccc(C(F)(F)F)cc3c2=O)c1` [Compound B-16, 4-(Benzenesulfonyl)-3-[[4-oxo-6-(trifluoromethyl)quinazolin-3-yl]amino]benzonitrile]: the IC50 came to 1470 nM. In the case of `CCCc1ccc(Cl)cc1Nn1cnc2ccc(OC(F)(F)F)cc2c1=O` [Compound B-17, 3-(5-Chloro-2-propylanilino)-6-(trifluoromethoxy)quinazolin-4-one] it was 410 nM; in that of `CC(C)Cc1ccc(Cl)cc1Nn1cnc2ccc(OC(F)(F)F)cc2c1=O` [Compound B-19, 3-[5-Chloro-2-(2-methylpropyl)anilino]-6-(trifluoromethoxy)quinazolin-4-one], 330 nM; in that of `CCSc1ccc(C#N)cc1Nn1cnc2c(Br)cc(C)cc2c1=O` [Compound C-1, 3-[(8-Bromo-6-methyl-4-oxoquinazolin-3-yl)amino]-4-ethylsulfanylbenzonitrile], 110 nM. Turning to `CCS(=O)(=O)c1ccc(C#N)cc1Nn1cnc2c(Br)cc(C)cc2c1=O` [Compound C-2, 3-[(8-Bromo-6-methyl-4-oxoquinazolin-3-yl)amino]-4-ethylsulfonylbenzonitrile], the concentration for half-maximal inhibition (IC50) is 160 nM. `CCSc1ccc(C#N)cc1Nn1cnc2cc(C)c(Br)cc2c1=O` [Compound C-5, 3-[(6-bromo-7-methyl-4-oxoquinazolin-3-yl)amino]-4-ethylsulfanylbenzonitrile]: the half-maximal inhibitory concentration (IC50) was found to be 130 nM. Then `CCS(=O)(=O)c1ccc(C#N)cc1Nn1cnc2cc(C)c(Br)cc2c1=O` [Compound C-6, 3-[(6-Bromo-7-methyl-4-oxoquinazolin-3-yl)amino]-4-ethylsulfonylbenzonitrile], with 250 nM; and `CCSc1ccc(C#N)cc1Nn1cnc2ncc(Br)cc2c1=O` [Compound C-7, 3-[(6-Bromo-4-oxopyrido[2,3-d]pyrimidin-3-yl)amino]-4-ethylsulfanylbenzonitrile], with 750 nM.

Regarding `CCS(=O)(=O)c1ccc(C#N)cc1Nn1cnc2ncc(Br)cc2c1=O` [Compound C-8, 3-[(6-Bromo-4-oxopyrido[2,3-d]pyrimidin-3-yl)amino]-4-ethylsulfonylbenzonitrile], the 50% inhibitory concentration (IC50) is 6400 nM.

For `CCSc1ccc(C#N)cc1Nn1cnc2ccc(C(F)(F)F)cc2c1=O` [Compound C-9, 4-Ethylsulfanyl-3-[[4-oxo-6-(trifluoromethyl)quinazolin-3-yl]amino]benzonitrile], the 50% inhibitory concentration (IC50) was determined as 99 nM. As to `CCSc1ccc(C#N)cc1Nn1cnc2c(Br)cc(C(F)(F)F)cc2c1=O` [Compound C-11, 3-[[8-Bromo-4-oxo-6-(trifluoromethyl)quinazolin-3-yl]amino]-4-ethylsulfanylbenzonitrile], the IC50 turned out to be 110 nM.

Turning to `CCSc1ccc(C#N)cc1Nn1cnc2c(Br)cc(OC(F)(F)F)cc2c1=O` [Compound C-13], the IC50 came to 110 nM. In the case of `CCSc1ccc(C#N)cc1Nn1cnc2ccc(OC(F)(F)F)cc2c1=O` [Compound C-15, 4-Ethylsulfanyl-3-[[4-oxo-6-(trifluoromethoxy)quinazolin-3-yl]amino]benzonitrile] it was 210 nM; in that of `CCS(=O)(=O)c1ccc(C#N)cc1Nn1cnc2ccc(OC(F)(F)F)cc2c1=O` [Compound C-16, 4-Ethylsulfonyl-3-[[4-oxo-6-(trifluoromethoxy)quinazolin-3-yl]amino]benzonitrile], 270 nM; in that of `CCSc1ccc(C#N)cc1Nn1cnc2cc(Br)c(OC(F)(F)F)cc2c1=O` [Compound C-17, 3-[[7-Bromo-4-oxo-6-(trifluoromethoxy)quinazolin-3-yl]amino]-4-ethylsulfanylbenzonitrile], 230 nM. Then `CCS(=O)(=O)c1ccc(C#N)cc1Nn1cnc2cc(Br)c(OC(F)(F)F)cc2c1=O` [Compound C-18, 3-[[7-bromo-4-oxo-6-(trifluoromethoxy)quinazolin-3-yl]amino]-4-ethylsulfonylbenzonitrile], with 430 nM. `CCSc1ccc(F)cc1Nn1cnc2c(Br)cc(OC(F)(F)F)cc2c1=O` [Compound C-19, 8-Bromo-3-(2-ethylsulfanyl-5-fluoroanilino)-6-(trifluoromethoxy)quinazolin-4-one]: the concentration for half-maximal inhibition (IC50) came to 340 nM. As for `CCS(=O)(=O)c1ccc(F)cc1Nn1cnc2c(Br)cc(OC(F)(F)F)cc2c1=O` [Compound C-20, 8-Bromo-3-(2-ethylsulfonyl-5-fluoroanilino)-6-(trifluoromethoxy)quinazolin-4-one], the IC50 is 150 nM.
